Results taken from patent publication US20070270362A1, “Methods and compositions for prevention or treatment of inflammatory-related diseases and disorders” (The University of Washington, priority 2006, published 2007).
Entries after “also recorded” stand apart in the source; their conditions may differ.

Legend:
[1] = system: BAEC or HUVEC monolayer; test: Lymphocyte adhesion to endothelial cells treated with retracting or apoptosis-inducing agents; format: cell-based; settings: for lymphocyte adhesion to EC treated with the agent: BAEC or HUVEC
Protocol: Cells. Jurkat cells and Ramos B cells were obtained from the American Type Culture Collection (ATCC) and were cultured in RPMI (Mediatech, Herndon Va.) supplemented with glutaMAX-1 (Invitrogen, Carlsbad Calif.), 1 mM sodium pyruvate (BioWhittaker, Walkersville Md.), nonessential amino acids (NEAA) (BioWhittaker) and 10% fetal bovine serum (FBS) (Hyclone, Logan Utah). Peripheral blood was obtained from healthy donors with informed consent according to protocols approved by the Human Subjects Review Committee of the University of Washington. PBMC were isolated by Ficoll-Hypaque (Pharmacia, Piscataway, N.J.) gradient centrifugation and washed with PBS. […] HUVEC were cultured on surfaces coated with 2% gelatin (Sigma). BAEC were a gift of Helene Sage (Hope Heart Institute, Seattle Wash.) and were grown in DMEM (Mediatech) supplemented with glutaMAX-1, sodium pyruvate and 8% FBS. […] Adhesion assays. Lymphocytes were labeled with 2.5 mM calcein-AM (Molecular Probes, Eugene, Oreg.) at room temperature for 20-40 min, washed, and resuspended in HBSS with calcium and magnesium (Mediatech) supplemented with 0.1% BSAnd 4 mM HEPES. Lymphocytes were incubated with inhibitors or function-blocking antibodies at 37° C. for 15-30 min and tested for LIA or phorbol ester-stimulated adhesion to EC or to EC matrix for 15-30 min at 37° C. Adhesion was measured by a Cytofluor Series 4000 fluorescence plate reader (PerSeptive Biosystems, Framingham, Mass.). Plates were scanned before and after washing for total and adherent cells, respectively. Statistical significance was deteremined by Student's t-Test. In some cases, EC were labeled with Cell Tracker Orange (Molecular Probes) per manufacturers instructions prior to adhesion. Cells were fixed after adhesion assays and adherent cells were directly visualized by fluorescent microscopy.

[2] = system: Jurkat cells or PBMC adhering to cytochalasin D-retracted BAEC or BAEC-derived matrix; test: Ligand-induced adhesion (LIA) of unstimulated lymphocytes to retracted EC or EC matrix; format: cell-based, human; settings: for adhesion to retracted BAEC or EC matrix (LIA): Jurkat or PBMC treated with 20 μM inhibitor for 30 min, adhesion 30 min; for ligand-induced cell adhesion: same dose (1 μM) treatment of Jurkat cells
Protocol: Cells. Jurkat cells and Ramos B cells were obtained from the American Type Culture Collection (ATCC) and were cultured in RPMI (Mediatech, Herndon Va.) supplemented with glutaMAX-1 (Invitrogen, Carlsbad Calif.), 1 mM sodium pyruvate (BioWhittaker, Walkersville Md.), nonessential amino acids (NEAA) (BioWhittaker) and 10% fetal bovine serum (FBS) (Hyclone, Logan Utah). Peripheral blood was obtained from healthy donors with informed consent according to protocols approved by the Human Subjects Review Committee of the University of Washington. PBMC were isolated by Ficoll-Hypaque (Pharmacia, Piscataway, N.J.) gradient centrifugation and washed with PBS. HUVEC were isolated and cultured as previously described (Schwartz et al., J Immunol 162: 4842-8, 1999) and were grown in RPMI 1640 with supplemented with 2 mM glutamine, sodium pyruvate, NEAA, 10 mM HEPES, 100 U/ml penicillin, 100 U/ml streptomycin, 250 ng/ml fungizone (BioWhittaker), […] heparin (Sigma, St. Louis, Mo.), bovine hypothalamic extract (gift of E. Raines, University of Washington, Seattle, Wash.), and 10% bovine calf serum supplemented with iron (HyClone). HUVEC were cultured on surfaces coated with 2% gelatin (Sigma). BAEC were a gift of Helene Sage (Hope Heart Institute, Seattle Wash.) and were grown in DMEM (Mediatech) supplemented with glutaMAX-1, sodium pyruvate and 8% FBS. EC matrix was prepared by lysis of a confluent layer of EC with 20 mM NH4OH at 37° C. for 5 min (Kato and Gospodarowicz, J Cell Biol 100: 486-95, 1985) and blocked briefly with growth medium. Adhesion assays. Lymphocytes were labeled with 2.5 mM calcein-AM (Molecular Probes, Eugene, Oreg.) at room temperature for 20-40 min, washed, and resuspended in HBSS with calcium and magnesium (Mediatech) supplemented with 0.1% BSAnd 4 mM HEPES. Lymphocytes were incubated with inhibitors or function-blocking antibodies at 37° C. for 15-30 min and tested for LIA or phorbol ester-stimulated adhesion to EC or to EC matrix for 15-30 min at 37° C. Adhesion was measured by a Cytofluor Series 4000 fluorescence plate reader (PerSeptive Biosystems, Framingham, Mass.). Plates were scanned before and after washing for total and adherent cells, respectively. Statistical significance was deteremined by Student's t-Test. In some cases, EC were labeled with Cell Tracker Orange (Molecular Probes) per manufacturers instructions prior to adhesion. Cells were fixed after adhesion assays and adherent cells were directly visualized by fluorescent microscopy. Underlying fibronectin fibrils were visualized with polyclonal anti-bovine fibronectin antibody (Accurate), followed by Alexa-568 conjugated secondary antibody (Molecular Probes).

[3] = system: PBMC migrating through confluent HUVEC monolayer; test: Transendothelial migration assay; format: cell-based, human
Protocol: Flow cytometry. Integrin subunit expression levels were analyzed by a FACScan (Becton Dickinson) instrument. Analyzed cells were incubated in integrin antibodies for 30 min, followed by incubation with fluorescein-labeled secondary antibodies for 30 mins. Migration Assays. Calcein-labeled PBMC were treated with purvanalol for 15 min, then added to a confluent monolayer of HUVEC grown on collagen-coated transwell (3 micron pore size, Costar-Corning). PBMC were allowed to migrate for 4 hours at 37° C. Number of migrated cells in bottom chamber was counted. […] In addition, in some experiments, equal numbers of PBMC were allowed to adhere to HUVEC, then treated with purvanaol, to verify that differences in migration were not simply due to differences in initial adhesion. All assays were performed in triplicate. Integrity of the endothelial monolayer was verified by measurements of transendothelial resistance before and after migration assay.

[4] = system: retinoblastoma protein (Rb), Cdk2 specific site (T821) and Cdk4 specific site (249/252); test: Western blot of Rb phosphorylation with phospho-specific antibodies; format: cell-based; settings: Jurkat cells, 20 μM, 30 min
Protocol: Western Blot Analysis. Equal numbers of Jurkat cells (1×10^6) were lysed in buffer containing 50 mM Hepes, pH 7.5, 10 mM NaCl, 5 mM MgCl2, 1 mM EGTA, 1 μg/ml leupeptin, 1 μg/ml aprotinin, 1% triton, and 10% glycerol and Complete Mini Protease Inhibitor Cocktail (Roche). Equal amounts of protein were separated by SDS-PAGE, transferred to Immobilon and blocked for 1 hour. Blots were incubated with primary antibody for 1 hour, followed by peroxidase-conjugated secondary antibody for 1 hour and then developed with Enhanced Chemiluminescence (ECL, Amersham). […] Anti-Cdk2 and anti-Cdk4 antibodies were obtained from eBioscience.

[5] = system: Jurkat cells; settings: 1 μM treatment of Jurkat cells; previously reported; cited from earlier work

CC(=O)O[C@H]1C(=O)[C@@]2(C)[C@H]([C@H](OC(=O)c3ccccc3)[C@]3(O)C[C@H](OC(=O)[C@H](O)[C@@H](NC(=O)c4ccccc4)c4ccccc4)C(C)=C1C3(C)C)[C@]1(OC(C)=O)CO[C@@H]1C[C@@H]2O [paclitaxel]
endothelial cell retraction [1]: failed to induce retraction | lymphocyte adhesion to EC treated with the agent [1]: failed to produce comparable lymphocyte adhesion

CC(C)[C@H](CO)Nc1nc(Nc2cc(N)cc(Cl)c2)c2ncn(C(C)C)c2n1 [aminopurvalanol A]
adhesion to retracted BAEC or EC matrix (LIA) [2]: block ligand-induced adhesion; also recorded: significantly reduced

CC(C)[C@H](CO)Nc1nc(Nc2cccc(Cl)c2)c2ncn(C(C)C)c2n1 [purvalanol A]
initial adhesion of PBMC to confluent endothelial cells [3]: did not affect initial adhesion | PBMC migration through confluent endothelial monolayer ([3]; HUVEC on transwell): inhibited | adhesion to retracted BAEC or EC matrix (LIA) [2]: block ligand-induced adhesion; also recorded: significantly reduced | phosphorylation of Rb at Cdk2 site (T821) and Cdk4 site (249/252) [4]: block Rb phosphorylation

C=C1[C@@H](C)[C@H]2[C@H](Cc3ccccc3)NC(=O)[C@]23[C@H](OC(C)=O)/C=C/[C@@](C)(O)C(=O)[C@@H](C)C/C=C/[C@H]3[C@@H]1O [cytochalasin D]
phorbol ester-stimulated cell adhesion [5]: Inhibited by cytochalasin D | endothelial cell retraction [1]: caused endothelial cell retraction | PBMC adhesion to treated EC versus untreated EC ([1]; PBMC): 5-6 fold | ligand-induced cell adhesion [2]: Not affected by cytochalasin D | ligand-induced cell adhesion ([2]; listed as cytochalasin): no affect

O=C(O)CN(CCN(CC(=O)O)CC(=O)O)CC(=O)O [EDTA]
endothelial cell retraction [1]: caused endothelial cell retraction

COc1cccc(-c2cc(=O)c3ccccc3o2)c1N [PD98059]
inhibition of LIA by inhibitors of other pathways [2]: did not inhibit LIA

O=c1c(-c2ccc(O)cc2)coc2cc(O)cc(O)c12 [genistein]
inhibition of LIA by inhibitors of other pathways [2]: did not inhibit LIA

CN[C@@H]1C[C@H]2O[C@@](C)([C@@H]1OC)n1c3ccccc3c3c4c(c5c6ccccc6n2c5c31)C(=O)NC4 [staurosporine]
endothelial cell retraction [1]: caused endothelial cell retraction

COC(=O)Nc1nc2cc(C(=O)c3cccs3)ccc2[nH]1 [nocadozole]
endothelial cell retraction [1]: failed to induce retraction | lymphocyte adhesion to EC treated with the agent [1]: failed to produce comparable lymphocyte adhesion

latrunculin
endothelial cell retraction [1]: caused endothelial cell retraction

C[C@@H](N)[C@H]1CC[C@H](C(=O)Nc2ccncc2)CC1 [Y-7632]
inhibition of LIA by inhibitors of other pathways [2]: did not inhibit LIA

CC[C@H](CO)Nc1nc(NCc2ccccc2)c2ncn(C(C)C)c2n1 [roscovitine]
adhesion to retracted BAEC or EC matrix (LIA) [2]: block ligand-induced adhesion; also recorded: significantly reduced

Thrombin
endothelial cell retraction [1]: caused endothelial cell retraction | increase of Jurkat cell adhesion to treated BAEC ([1]; Jurkat cells, BAEC): 4-5 fold

CC[C@]1(O)C[C@@H]2CN(CCc3c([nH]c4ccccc34)[C@@](C(=O)OC)(c3cc4c(cc3OC)N(C)[C@H]3[C@@](O)(C(=O)OC)[C@H](OC(C)=O)[C@]5(CC)C=CCN6CC[C@]43[C@@H]65)C2)C1 [vinblastine]
endothelial cell retraction [1]: failed to induce retraction | lymphocyte adhesion to EC treated with the agent [1]: failed to produce comparable lymphocyte adhesion

COc1cc2c(c(OC)c1OC)-c1ccc(OC)c(=O)cc1[C@@H](NC(C)=O)CC2 [colchicine]
endothelial cell retraction [1]: failed to induce retraction | lymphocyte adhesion to EC treated with the agent [1]: failed to produce comparable lymphocyte adhesion
